20 compounds from patent publication US20240262801A1, “COMPOUNDS HAVING 5-(2-FLUORO-6-HYDROXYPHENYL)-1,2,5-THIADIAZOLIDIN-3-ONE 1,1-DIOXIDE AS INHIBITORS OF PROTEIN KINASE PHOSPHATASE ENZYMES” (Ness Therapeutics, Inc., priority 2021, published 2024) can be followed below.

pIC50: −log10 of the molar value. Read-outs that look alike come from different tables or passages of the source. Bounds are passed on as bounds.

One assay concerns the target T1, GST-tagged PTPN2 protein (Homo sapiens, UniProt P17706).
T1 construct: purchased ActiveMotif 31592
As to the kind of experiment: Primary assay of PTPN2 enzymatic activity inhibition (DiFMUP fluorescence). The conditions noted are these: DiFMUP substrate 2 μM, 60 min at RT. It counts as biochemical. The method, boiled down:
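Enzyme at 0.004 ng/μL final in 50 mM HEPES pH 7.2-7.4, 2 mM EDTA, 100 mM NaCl, BSA, 6 mM DTT; compounds preincubated 10 min at RT. DiFMUP added at 2 μM final, 60 min at RT, fluorescence read at ex 360/em 450 nm. IC50 calculated from % inhibition.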

Assay [1] relates to B16F10 mouse melanoma cells. As to the kind of experiment: Tumor cells B16F10 cellular growth IFNγ-induced inhibition assay (CellTiter-Glo). The conditions noted are these: for pIC50: B16-F10, 72 h, 3 days incubation; for inhibition at 100 µM: B16-F10, B16F10, 100 μM compound. It is filed as cell-based. An outline of the steps:
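Cells were seeded at 500/well in DMEM + 10% FBS and allowed to adhere overnight at 37° C, 5% CO2. Compounds at 1× final were added via medium with or without IFNγ (5 ng/ml in the dilution medium). After 3 days, CellTiter-Glo luminescence gave % growth inhibition versus the DMSO/IFNγ control, from which IC50 was derived.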
(In general: In ATP-based viability assays light output follows the ATP content of the culture.)

Setting [2] is: B16F10, + IFNγ, read-out: IC50 + IFNγ.
The mark [3] stands for this setting: B16F10, no IFNγ, read-out: IC50 no IFNγ.
Setting [4] is: + IFNγ, read-out: % Growth Inhibition at 100 μM + IFNγ.
Where [5] appears, read: no IFNγ, read-out: % Growth Inhibition at 100 μM no IFNγ.

T1 sequence (P17706 with tags, fused parts or gaps): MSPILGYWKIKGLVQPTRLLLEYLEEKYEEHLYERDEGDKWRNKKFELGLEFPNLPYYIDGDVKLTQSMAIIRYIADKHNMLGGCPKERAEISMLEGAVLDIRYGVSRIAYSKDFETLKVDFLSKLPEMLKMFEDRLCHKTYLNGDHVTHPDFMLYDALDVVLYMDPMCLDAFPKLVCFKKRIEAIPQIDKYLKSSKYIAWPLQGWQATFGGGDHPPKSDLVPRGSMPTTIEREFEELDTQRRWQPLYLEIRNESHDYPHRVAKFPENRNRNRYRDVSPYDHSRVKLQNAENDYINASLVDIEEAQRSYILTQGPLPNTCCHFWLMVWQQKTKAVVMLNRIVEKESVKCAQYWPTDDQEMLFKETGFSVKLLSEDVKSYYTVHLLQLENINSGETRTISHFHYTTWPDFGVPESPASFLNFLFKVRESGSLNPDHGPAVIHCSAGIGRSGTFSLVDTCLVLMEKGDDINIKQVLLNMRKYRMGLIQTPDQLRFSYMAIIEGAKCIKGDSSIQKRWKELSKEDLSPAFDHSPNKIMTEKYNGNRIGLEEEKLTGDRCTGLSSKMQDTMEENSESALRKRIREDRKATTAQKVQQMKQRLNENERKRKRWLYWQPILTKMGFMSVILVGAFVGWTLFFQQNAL

As a reminder, the pIC50 is −log10 of the IC50, conventionally taken in molar units. The inhibition is the drop in the measured response relative to a control, in per cent. With `O=C1CN(c2c(O)cc(-c3cccc(F)c3)cc2F)S(=O)(=O)N1` [Example 2, 5-(3,3′-difluoro-5-hydroxybiphenyl-4-yl)-1,2,5-thiadiazolidin-3-one 1,1-dioxide], the negative-log IC50 (pIC50) against GST-tagged PTPN2 protein was 6.30 to 7.00; in assay [1] (setting [2]), 4.00 to 4.30; in assay [1] (setting [3]), at most 4.00. The inhibition at 100 µM was 50 to 75% in assay [1] (setting [4]) and 10 to 50% in assay [1] (setting [5]).
For `O=C1CN(c2c(O)cc(NC(=O)Nc3ccccc3)cc2F)S(=O)(=O)N1` [Example 35, 1-[4-(1,1-dioxido-4-oxo-1,2,5-thiadiazolidin-2-yl)-3-fluoro-5-hydroxyphenyl]-3-phenylurea], in that order: 8.00 to 8.30, 4.30 to 5.00, at most 4.00, 75 to 100% and 10 to 50%.
On the same counts, the results for `O=C1CN(c2c(O)cc(-c3cc(F)cc(F)c3)cc2F)S(=O)(=O)N1` [Example 4, 5-(3,3′,5′-trifluoro-5-hydroxybiphenyl-4-yl)-1,2,5-thiadiazolidin-3-one 1,1-dioxide] are 6.30 to 7.00, at most 4.00, at most 4.00, 10 to 50% and 10 to 50%.
On the same counts, the results for `O=C1CN(c2c(O)cc(-c3cccc(NC4CCN(S(=O)(=O)Cc5ccccc5Cl)CC4)c3)cc2F)S(=O)(=O)N1` [Example 11, 5-[3′-({1-[(2-chlorobenzyl)sulfonyl]piperidin-4-yl}amino)-3-fluoro-5-hydroxybiphenyl-4-yl]-1,2,5-thiadiazolidin-3-one 1,1-dioxide] are 6.30 to 7.00, 4.00 to 4.30, at most 4.00, 50 to 75% and 10 to 50%.
As for `O=C1CN(c2c(O)cc(NC(=O)NC34CC(CO)(C3)C4)cc2F)S(=O)(=O)N1` [Example 111, 1-[3-fluoro-5-hydroxy-4-(1,1,4-trioxo-1,2,5-thiadiazolidin-2-yl)phenyl]-3-[3-(hydroxymethyl)-1-bicyclo[1.1.1]pentanyl]urea], the negative logarithm of the IC50 (pIC50) against GST-tagged PTPN2 protein was over 8.30; in assay [1] (setting [2]), 4.30 to 5.00; in assay [1] (setting [3]) it was at most 4.00. Further, the inhibition at 100 µM in assay [1] (setting [4]) lay within 75 to 100%; in assay [1] (setting [5]), 10 to 50%.
On the same counts, the results for `CC(C)(C)c1ccc(C(=O)Nc2cc(O)c(N3CC(=O)NS3(=O)=O)c(F)c2)cc1` [Example 16, 4-tert-butyl-N-[4-(1,1-dioxido-4-oxo-1,2,5-thiadiazolidin-2-yl)-3-fluoro-5-hydroxyphenyl]benzamide] are 6.30 to 7.00, at most 4.00, at most 4.00, 10 to 50% and 10 to 50%.
For `Cc1ccc(NC(=O)Nc2cc(O)c(N3CC(=O)NS3(=O)=O)c(F)c2)cc1` [Example 36, 1-[4-(1,1-dioxido-4-oxo-1,2,5-thiadiazolidin-2-yl)-3-fluoro-5-hydroxyphenyl]-3-(4-methylphenyl)urea], in that order: over 8.30, 4.00 to 4.30, at most 4.00, 50 to 75% and 10 to 50%.
For `COc1ccc(NC(=O)Nc2cc(O)c(N3CC(=O)NS3(=O)=O)c(F)c2)cc1` [Example 37, 1-[4-(1,1-dioxido-4-oxo-1,2,5-thiadiazolidin-2-yl)-3-fluoro-5-hydroxyphenyl]-3-(4-methoxyphenyl)urea], in that order: over 8.30, at most 4.00, at most 4.00, 10 to 50% and 10 to 50%.
Take `O=C1CN(c2c(O)cc(-c3ccccc3F)cc2F)S(=O)(=O)N1` [Example 7, 5-(2′,3-difluoro-5-hydroxybiphenyl-4-yl)-1,2,5-thiadiazolidin-3-one 1,1-dioxide]: the values for the negative-log IC50 (pIC50) (against GST-tagged PTPN2 protein; in assay [1] (setting [2]); in assay [1] (setting [3])) were 6.30 to 7.00, 4.00 to 4.30 and at most 4.00, respectively. In addition, the inhibition at 100 µM is 50 to 75% in assay [1] (setting [4]) and 10 to 50% in assay [1] (setting [5]).
Regarding `O=C1CN(c2c(O)cc(NC(=O)NC3CCN(S(=O)(=O)Cc4ccccc4Cl)CC3)cc2F)S(=O)(=O)N1` [Example 45, 1-{1-[(2-chlorobenzyl)sulfonyl]piperidin-4-yl}-3-[4-(1,1-dioxido-4-oxo-1,2,5-thiadiazolidin-2-yl)-3-fluoro-5-hydroxyphenyl]urea], the pIC50 against GST-tagged PTPN2 protein was 8.00 to 8.30; in assay [1] (setting [2]), at most 4.00; in assay [1] (setting [3]), at most 4.00. The inhibition at 100 µM in assay [1] (setting [4]) and in assay [1] (setting [5]) was 10 to 50% throughout.
Consider `CC(C)(C)OC(=O)N1CCCC(NC(=O)Nc2cc(O)c(N3CC(=O)NS3(=O)=O)c(F)c2)C1` (stereo not shown) [Example 106, tert-butyl 3-[[3-fluoro-5-hydroxy-4-(1,1,4-trioxo-1,2,5-thiadiazolidin-2-yl)phenyl]carbamoylamino]piperidine-1-carboxylate], for which the pIC50 was over 8.30 at GST-tagged PTPN2 protein, 4.00 to 4.30 in assay [1] (setting [2]) and at most 4.00 in assay [1] (setting [3]). Also, the inhibition at 100 µM lay in the range of 50 to 75% in assay [1] (setting [4]) and 10 to 50% in assay [1] (setting [5]).
For `O=C1CN(c2c(O)cc(NC(=O)N[C@@H]3c4ccccc4C[C@@H]3O)cc2F)S(=O)(=O)N1` [Example 108, 1-[3-fluoro-5-hydroxy-4-(1,1,4-trioxo-1,2,5-thiadiazolidin-2-yl)phenyl]-3-[(1R,2S)-2-hydroxyindan-1-yl]urea], in that order: 7.30 to 8.00, 4.30 to 5.00, at most 4.00, 50 to 75% and 10 to 50%.
As for `CC(C)C[C@@H](CO)NC(=O)Nc1cc(O)c(N2CC(=O)NS2(=O)=O)c(F)c1` [Example 110, 1-[3-fluoro-5-hydroxy-4-(1,1,4-trioxo-1,2,5-thiadiazolidin-2-yl)phenyl]-3-[(1S)-1-(hydroxymethyl)-3-methyl-butyl]urea], the pIC50 on GST-tagged PTPN2 protein is 8.00 to 8.30; in assay [1] (setting [2]), 4.30 to 5.00; in assay [1] (setting [3]), at most 4.00. In addition, the inhibition at 100 µM fell in the range of 50 to 75% in assay [1] (setting [4]) and 10 to 50% in assay [1] (setting [5]).
On the same counts, the results for `O=C1CN(c2c(O)cc(NC(=O)NCC3CNCC34CCCCC4)cc2F)S(=O)(=O)N1` (stereo not shown) [Example 100, 1-(2-azaspiro[4.5]decan-4-ylmethyl)-3-[3-fluoro-5-hydroxy-4-(1,1,4-trioxo-1,2,5-thiadiazolidin-2-yl)phenyl]urea] are 7.30 to 8.00, 4.30 to 5.00, at most 4.00, 50 to 75% and 10 to 50%.
For `COc1ccc(-c2cc(O)c(N3CC(=O)NS3(=O)=O)c(F)c2)cc1` [Example 3, 5-(3-fluoro-5-hydroxy-4′-methoxybiphenyl-4-yl)-1,2,5-thiadiazolidin-3-one 1,1-dioxide], in that order: 6.30 to 7.00, at most 4.00, at most 4.00, 10 to 50% and 10 to 50%.
For `Cc1cccc(S(=O)(=O)Nc2cc(O)c(N3CC(=O)NS3(=O)=O)c(F)c2)c1` [Example 22, N-[4-(1,1-dioxido-4-oxo-1,2,5-thiadiazolidin-2-yl)-3-fluoro-5-hydroxyphenyl]-3-methylbenzenesulfonamide], in that order: 7.30 to 8.00, 4.30 to 5.00, at most 4.00, 50 to 75% and 10 to 50%.
On to `CC(C)CCNC(=O)Nc1cc(O)c(N2CC(=O)NS2(=O)=O)c(F)c1` [Example 62, 1-[4-(1,1-dioxido-4-oxo-1,2,5-thiadiazolidin-2-yl)-3-fluoro-5-hydroxyphenyl]-3-(3-methylbutyl)urea], for which the figures for the negative logarithm of the IC50 (pIC50) (at GST-tagged PTPN2 protein; in assay [1] (setting [2]); in assay [1] (setting [3])) were 8.00 to 8.30, over 5.30 and at most 4.00, respectively. Also, the inhibition at 100 µM in assay [1] (setting [4]) lay in the range of 75 to 100%; in assay [1] (setting [5]), 10 to 50%.
For `O=C1CN(c2c(O)cc(NS(=O)(=O)c3ccc(F)cc3)cc2F)S(=O)(=O)N1` [Example 20, N-[4-(1,1-dioxido-4-oxo-1,2,5-thiadiazolidin-2-yl)-3-fluoro-5-hydroxyphenyl]-4-fluorobenzenesulfonamide], in that order: 7.00 to 7.30, 4.30 to 5.00, at most 4.00, 50 to 75% and 10 to 50%.
On the same counts, the results for `O=C1CN(c2c(O)cc(NC(=O)NC3CCNCC3)cc2F)S(=O)(=O)N1` [Example 99, 1-[3-fluoro-5-hydroxy-4-(1,1,4-trioxo-1,2,5-thiadiazolidin-2-yl)phenyl]-3-(4-piperidyl)urea] are 7.30 to 8.00, 4.30 to 5.00, at most 4.00, 50 to 75% and 10 to 50%.
Turning to `CC(C)CCN1CC(CNC(=O)Nc2cc(O)c(N3CC(=O)NS3(=O)=O)c(F)c2)C2(CCCCC2)C1` (stereo not shown) [Example 102, 1-[3-fluoro-5-hydroxy-4-(1,1,4-trioxo-1,2,5-thiadiazolidin-2-yl)phenyl]-3-[(2-isopentyl-2-azaspiro[4.5]decan-4-yl)methyl]urea], the negative logarithm of the IC50 (pIC50) was 8.00 to 8.30 at GST-tagged PTPN2 protein, at most 4.00 in assay [1] (setting [2]) and at most 4.00 in assay [1] (setting [3]). The inhibition at 100 µM in assay [1] (setting [4]) and in assay [1] (setting [5]) was 10 to 50% in each case.
